Patent publication US10986838B2, “Herbicides” (SYNGENTA PARTICIPATIONS AG, priority 2016, dated 2021)

Assays:
Assay type in all cases: in vivo
[1] = system: Alopecurus myosuroides (ALOMY); assay: Pre-emergence herbicidal activity (B1); settings: Test 1a, 1000 g/ha, evaluated after 13 days, 5=total damage to plant, 0=no damage to plant
Outline: (§1)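 Glasshouse pre-emergence spray test: compound in acetone/water (50:50), 0.5% Tween 20, applied one day after sowing; plants kept at 24/16 °C day/night, 14 h light, 65% humidity, then scored 0–5 for damage after 13 days.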

Avena fatua (AVEFA) [2] = assay: Pre-emergence herbicidal activity (B1); settings: Test 1a, 1000 g/ha, evaluated after 13 days, 5=total damage to plant, 0=no damage to plant
Outline: as §1

[3] = system: Echinochloa crus-galli (ECHCG); assay: Pre-emergence herbicidal activity (B1); settings: Test 1a, 1000 g/ha, evaluated after 13 days, 5=total damage to plant, 0=no damage to plant
Outline: as §1

Lolium perenne (LOLPE) [4] = assay: Pre-emergence herbicidal activity (B1); settings: Test 1a, 1000 g/ha, evaluated after 13 days, 5=total damage to plant, 0=no damage to plant
Outline: as §1

Setaria faberi (SETFA) [5] = assay: Pre-emergence herbicidal activity (B1); settings: Test 1a, 1000 g/ha, evaluated after 13 days, 5=total damage to plant, 0=no damage to plant
Outline: as §1

[6] = system: Triticum aestivium (TRZAW); assay: Pre-emergence herbicidal activity (B1); settings: Test 1a, 1000 g/ha, evaluated after 13 days, 5=total damage to plant, 0=no damage to plant
Outline: as §1

[7] = system: Alopecurus myosuroides (ALOMY); assay: Post-emergence herbicidal activity (B2); settings: Test B2a, 1000 g/ha, evaluated after 13 days, 5=total damage to plant, 0=no damage to plant
Outline: (§2)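 Post-emergence spray at 8 days after sowing; vehicle acetone/water 50:50 + 0.5% Tween 20; glasshouse 24/16 °C, 14 h light, 65% RH, watered twice daily; visual score day 13, 0 = no damage, 5 = total damage.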

Avena fatua (AVEFA) [8] = assay: Post-emergence herbicidal activity (B2); settings: Test B2a, 1000 g/ha, evaluated after 13 days, 5=total damage to plant, 0=no damage to plant
Outline: as §2

[9] = system: Echinochloa crus-galli (ECHCG); assay: Post-emergence herbicidal activity (B2); settings: Test B2a, 1000 g/ha, evaluated after 13 days, 5=total damage to plant, 0=no damage to plant
Outline: as §2

Lolium perenne (LOLPE) [10] = assay: Post-emergence herbicidal activity (B2); settings: Test B2a, 1000 g/ha, evaluated after 13 days, 5=total damage to plant, 0=no damage to plant
Outline: as §2

Setaria faberi (SETFA) [11] = assay: Post-emergence herbicidal activity (B2); settings: Test B2a, 1000 g/ha, evaluated after 13 days, 5=total damage to plant, 0=no damage to plant
Outline: as §2

[12] = system: Triticum aestivium (TRZAW); assay: Post-emergence herbicidal activity (B2); settings: Test B2a, 1000 g/ha, evaluated after 13 days, 5=total damage to plant, 0=no damage to plant
Outline: as §2

Compound | ALOMY damage score [1] | AVEFA damage score (Avena fatua (AVEFA) [2]) | ECHCG damage score [3] | LOLPE damage score (Lolium perenne (LOLPE) [4]) | SETFA damage score (Setaria faberi (SETFA) [5]) | TRAZW damage score [6] | ALOMY damage score [7] | AVEFA damage score (Avena fatua (AVEFA) [8]) | ECHCG damage score [9] | LOLPE damage score (Lolium perenne (LOLPE) [10]) | SETFA damage score (Setaria faberi (SETFA) [11]) | TRAZW damage score [12]
CC(C)CCNc1ccc(-c2cncc(F)c2)nc1C(F)(F)F [Compound A53] | 1 | 1 | 4 | 2 | 5 | 1 | 1 | 3 | 5 | 3 | 5 | 1
Fc1cncc(-c2ccc(NCC3CCCCC3)c(C(F)(F)F)n2)c1 [Compound A52] | 0 | 1 | 3 | 1 | 5 | 0 | 0 | 3 | 3 | 3 | 5 | 0
CNc1ccc(-c2cncc(C#N)c2)nc1C(F)(F)F [Compound A1] | 0 | 1 | 1 | 1 | 4 | 0 | 0 | 3 | 3 | 2 | 5 | 2
Cn1ccc(CNc2ccc(-c3cncc(F)c3)nc2C(F)(F)F)n1 [Compound A59] | 0 | 3 | 4 | 1 | 5 | 0 | 1 | 3 | 5 | 3 | 5 | 2
Fc1cncc(-c2ccc(NCc3nccs3)c(C(F)(F)F)n2)c1 [Compound A56] | 0 | 2 | 4 | 1 | 5 | 1 | 1 | 4 | 5 | 3 | 5 | 1
N#Cc1nc(-c2cncnc2)ccc1N [Compound A44] | 0 | 1 | 3 | 2 | 5 | 0 | 0 | 2 | 3 | 1 | 4 | 0
CCCN(CCC)c1ccc(-c2cncc(F)c2)nc1C(F)(F)F [Compound A48] | 0 | 0 | 4 | 0 | 4 | 0 | 0 | 3 | 4 | 2 | 5 | 1
Fc1cncc(-c2ccc(N3CCCC3C(F)(F)F)c(C(F)(F)F)n2)c1 (stereo not drawn) [Compound A64] | 0 | 0 | 1 | 0 | 1 | 0 | 0 | 1 | 2 | 0 | 4 | 0
N#Cc1cncc(-c2ccc(N)c(C(F)(F)F)n2)c1 [Compound A2] | 0 | 0 | 2 | 1 | 4 | 0 | 1 | 3 | 4 | 2 | 5 | 0
CN1CCN(c2ccc(-c3cncc(F)c3)nc2C(F)(F)F)CC1 [Compound A61] | 0 | 2 | 4 | 0 | 5 | 0 | 1 | 3 | 5 | 2 | 5 | 1
Nc1ccc(-c2cncc(Cl)c2)nc1C(F)(F)F [Compound A3] | 0 | 1 | 3 | 1 | 5 | 0 | 1 | 3 | 3 | 2 | 4 | 0
Fc1cncc(-c2ccc(N3CCC3)c(C(F)(F)F)n2)c1 [Compound A63] | 0 | 0 | 2 | 0 | 5 | 0 | 0 | 3 | 3 | 2 | 5 | 0
CCCNc1ccc(-c2cncc(F)c2)nc1C(F)(F)F [Compound A47] | 0 | 1 | 3 | 1 | 4 | 0 | 0 | 2 | 4 | 2 | 5 | 2
COC(=O)c1nc(-c2cncc(F)c2)ccc1N [Compound A41] | 0 | 0 | 2 | 0 | 2 | 0 | 0 | 1 | 2 | 0 | 2 | 0
Nc1ccc(-c2cncc(F)c2)nc1-c1ccccc1 [Compound A50] | 0 | 0 | 1 | 0 | 1 | 0 | 0 | 0 | 1 | 0 | 2 | 0
Cc1nc(-c2cncc(OC(F)F)c2)ccc1N [Compound A4] | 0 | 0 | 1 | 1 | 2 | 0 | 1 | 3 | 2 | 1 | 4 | 1
Fc1cncc(-c2ccc(NCc3cc4ccccn4n3)c(C(F)(F)F)n2)c1 [Compound A55] | 0 | 2 | 5 | 1 | 5 | 0 | 1 | 4 | 5 | 3 | 5 | 2
Fc1cncc(-c2ccc(N3CC(F)(F)C(F)(F)C3)c(C(F)(F)F)n2)c1 [Compound A62] | 0 | 1 | 3 | 0 | 5 | 0 | 0 | 3 | 3 | 2 | 5 | 0
Fc1cncc(-c2ccc(N3CCCC3)c(C(F)(F)F)n2)c1 [Compound A40] | 1 | 1 | 4 | 1 | 4 | 0 | 0 | 3 | 5 | 2 | 5 | 0
